In publication PMC8176454, “Synthesis and Assessment of Novel Probes for Imaging Tau Pathology in Transgenic Mouse and Rat Models” (ACS Chemical Neuroscience, 2021):
Entries after “also recorded” stand apart in the source; their conditions may differ.

Molecular target: T1, tau aggregates in brain of P301S tau mice (Homo sapiens, UniProt P10636, P618S)
T1 construct: from tissue; host or cells: brain of transgenic P301S tau mice (C57Bl/6 background)
Assay: Ex vivo mouse study: i.v. injection, brain sections imaged after 1 h
Type: in vivo
Protocol: We next looked at the ability of LM229 to cross the blood–brain barrier (BBB), a key property of any viable neuro-radiotracer. LM229 was injected intravenously (i.v.) (1 mg/kg weight), and after 1 h, WT and P301S tau mice were perfused-fixed and brain sections were imaged under a fluorescence microscope. […] However, we await a comparison of PBB3 and LM229 by PET imaging to determine their relativity properties as in vivo imaging probes.
Mice were injected intravenously (i.v.) with 50 μM LM229 or PBB3 (DMSO) diluted in 50:50 ethanol/PBS. Animals were then perfused (4% PFA) 1 h post-i.v.

T1 sequence (P10636 1-383 isoform P10636-6 P243S): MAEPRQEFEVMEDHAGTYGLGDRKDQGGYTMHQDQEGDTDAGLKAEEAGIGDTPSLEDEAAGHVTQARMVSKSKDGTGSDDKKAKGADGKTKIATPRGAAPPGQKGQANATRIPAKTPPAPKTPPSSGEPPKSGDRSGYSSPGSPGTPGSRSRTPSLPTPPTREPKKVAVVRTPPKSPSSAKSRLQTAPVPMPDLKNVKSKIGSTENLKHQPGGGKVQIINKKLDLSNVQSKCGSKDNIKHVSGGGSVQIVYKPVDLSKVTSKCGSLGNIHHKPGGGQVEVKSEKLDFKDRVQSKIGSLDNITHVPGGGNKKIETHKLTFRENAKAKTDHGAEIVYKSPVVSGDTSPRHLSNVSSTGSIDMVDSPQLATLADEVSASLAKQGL

## CNc1ccc(/C=C/C=C/c2nc3cc(F)c(O)cc3s2)cn1 [LM229]
i.v. 1 mg/kg, 1 h, fluorescence microscopy
  Blood–brain barrier crossing: crosses the BBB
i.v. injection 1 h prior, colocalization with AT8
  Ex vivo binding in P301S tau brain tissue: less non-specific binding and more specific binding to tau aggregates; also recorded: significant specific binding to tau aggregates
